The text below walks through data of US8592456B2 (4SC Discovery GmbH, priority 2011, dated 2013).

SMILES strings stand for the structures.

The test system of one assay is PBMC (T cell proliferation). The experiment in a line: T cell proliferation assay, PHA-stimulated human PBMC (BrdU ELISA). Conditions: Homo sapiens, 48 h, read-out: D: IC50 (Tcell proliferation). It is filed as cell-based. In short, it runs like this: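 Healthy-donor human PBMC, Ficoll-isolated, seeded 1×10^5 cells/well in RPMI1640 with 10% dialyzed FCS, stimulated with 2 μg/ml PHA alongside test compound. Proliferation read after 48 hours by BrdU ELISA.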
On the technique in general: Uptake of a labelled nucleoside into DNA is a usual measure of proliferation.
Take `CCOC(=O)c1c(-c2c(F)cccc2Cl)noc1-c1cnn(-c2ccccc2N)c1C(F)(F)F` [Example B-98, ethyl 5-(1-(2-aminophenyl)-5-(trifluoromethyl)-1H-pyrazol-4-yl)-3-(2-chloro-6-fluorophenyl)isoxazole-4-carboxylate]: the IC50 was 0.01 to 0.1 µM.

The same assay, now with this note: Homo sapiens, 48 h, read-out: IC50 (Tcell proliferation).
For the compound `Oc1csc(-c2c(-c3c(F)cccc3Cl)noc2-c2cnn(-c3cccc(F)c3)c2C(F)(F)F)n1` [Example I-9, 2-(3-(2-chloro-6-fluorophenyl)-5-(1-(3-fluorophenyl)-5-(trifluoromethyl)-1H-pyrazol-4-yl)isoxazol-4-yl)thiazol-4-ol], the IC50 is 0.1 to 1 µM.

The same assay, now with this note: PHA-stimulated human PBMC, 48 hours, BrdU; column D; activity classes 1-4; read-out: IC50 (Tcell proliferation).
Consider `CC(C)Cn1ncc(-c2onc(-c3c(F)cccc3Cl)c2-c2nnn[nH]2)c1C(F)(F)F` [Example I-1, 3-(2-chloro-6-fluorophenyl)-5-(1-isobutyl-5-(trifluoromethyl)-1H-pyrazol-4-yl)-4-(1H-tetrazol-5-yl)isoxazole], for which the IC50 was 1 to 10 µM.

In the case of `Fc1cccc(-n2ncc(-c3onc(-c4c(F)cccc4Cl)c3-c3nnn[nH]3)c2C(F)(F)F)c1` [Example I-2, 3-(2-chloro-6-fluorophenyl)-5-(1-(3-fluorophenyl)-5-(trifluoromethyl)-1H-pyrazol-4-yl)-4-(1H-tetrazol-5-yl)isoxazole], the IC50 lay within 1 to 10 µM.

As for `Fc1cccc(Cl)c1-c1noc(-c2cnn(-c3cccc(Cl)c3)c2C(F)(F)F)c1-c1nnn[nH]1` [Example I-3, 3-(2-chloro-6-fluorophenyl)-5-(1-(3-chlorophenyl)-5-(trifluoromethyl)-1H-pyrazol-4-yl)-4-(1H-tetrazol-5-yl)isoxazole], the IC50 fell in the range of 1 to 10 µM.

For the compound `Fc1cccc(Cl)c1-c1noc(-c2cnn(-c3cccc(Cl)c3)c2C(F)(F)F)c1-c1nccs1` [Example I-5, 3-(2-chloro-6-fluorophenyl)-5-(1-(3-chlorophenyl)-5-(trifluoromethyl)-1H-pyrazol-4-yl)-4-(thiazol-2-yl)isoxazole], the IC50 was < 0.01 µM.

With `Fc1cccc(-n2ncc(-c3onc(-c4c(F)cccc4Cl)c3-c3nnco3)c2C(F)(F)F)c1` [Example I-7, 2-(3-(2-chloro-6-fluorophenyl)-5-(1-(3-fluorophenyl)-5-(trifluoromethyl)-1H-pyrazol-4-yl)isoxazol-4-yl)-1,3,4-oxadiazole], the IC50 was 0.01 to 0.1 µM.

On to `Fc1cccc(Cl)c1-c1noc(-c2cnn(-c3cccc(Cl)c3)c2C(F)(F)F)c1-c1cnco1` [Example I-8, 3-(2-chloro-6-fluorophenyl)-5-(1-(3-chlorophenyl)-5-(trifluoromethyl)-1H-pyrazol-4-yl)-4-(oxazol-5-yl)isoxazole], for which the IC50 is < 0.01 µM.

On to `COc1csc(-c2c(-c3c(F)cccc3Cl)noc2-c2cnn(-c3cccc(F)c3)c2C(F)(F)F)n1` [Example I-10, 3-(2-chloro-6-fluorophenyl)-5-(1-(3-fluorophenyl)-5-(trifluoromethyl)-1H-pyrazol-4-yl)-4-(4-methoxythiazol-2-yl)isoxazole], for which the IC50 fell in the range of 0.01 to 0.1 µM.

With `Cc1nnc(-c2c(-c3c(F)cccc3Cl)noc2-c2cnn(-c3ccccc3F)c2C(F)(F)F)o1` [Example I-11, 2-(3-(2-chloro-6-fluorophenyl)-5-(1-(2-fluorophenyl)-5-(trifluoromethyl)-1H-pyrazol-4-yl)isoxazol-4-yl)-5-methyl-1,3,4-oxadiazole], the IC50 is 0.1 to 1 µM.

`Cc1nnc(-c2c(-c3c(F)cccc3Cl)noc2-c2cnn(-c3ccccc3F)c2C(F)(F)F)s1` [Example I-12, 3-(2-chloro-6-fluorophenyl)-5-(1-(2-fluorophenyl)-5-(trifluoromethyl)-1H-pyrazol-4-yl)-4-(5-methyl-1,3,4-thiadiazol-2-yl)isoxazole]: the IC50 fell in the range of 0.1 to 1 µM.

As for `Fc1cccc(-n2ncc(-c3onc(-c4c(F)cccc4Cl)c3-c3ccoc3)c2C(F)(F)F)c1` [Example I-13, 3-(2-chloro-6-fluorophenyl)-5-(1-(3-fluorophenyl)-5-(trifluoromethyl)-1H-pyrazol-4-yl)-4-(furan-3-yl)isoxazole], the IC50 lay in the range of 1 to 10 µM.

For the compound `Fc1cccc(-n2ncc(-c3onc(-c4c(F)cccc4Cl)c3-c3ccccc3)c2C(F)(F)F)c1` [Example I-14, 3-(2-chloro-6-fluorophenyl)-5-(1-(3-fluorophenyl)-5-(trifluoromethyl)-1H-pyrazol-4-yl)-4-phenylisoxazole], the IC50 was in the range of 0.1 to 1 µM.

Turning to `Fc1ccccc1-n1ncc(-c2onc(-c3c(F)cccc3Cl)c2-c2nnco2)c1C(F)(F)F` [Example I-15, 2-(3-(2-chloro-6-fluorophenyl)-5-(1-(2-fluorophenyl)-5-(trifluoromethyl)-1H-pyrazol-4-yl)isoxazol-4-yl)-1,3,4-oxadiazole], the IC50 fell in the range of 0.1 to 1 µM.

For `Fc1cccc(-n2ncc(-c3onc(-c4c(F)cccc4Cl)c3-c3ccsc3)c2C(F)(F)F)c1` [Example I-16, 3-(2-chloro-6-fluorophenyl)-5-(1-(3-fluorophenyl)-5-(trifluoromethyl)-1H-pyrazol-4-yl)-4-(thiophen-3-yl)isoxazole], the IC50 was < 0.01 µM.

With `Fc1cccc(-n2ncc(-c3onc(-c4c(F)cccc4Cl)c3-c3ccco3)c2C(F)(F)F)c1` [Example I-17, 3-(2-chloro-6-fluorophenyl)-5-(1-(3-fluorophenyl)-5-(trifluoromethyl)-1H-pyrazol-4-yl)-4-(furan-2-yl)isoxazole], the IC50 is < 0.01 µM.

Consider `CCOC(=O)c1csc(-c2c(-c3c(F)cccc3Cl)noc2-c2cnn(-c3cccc(F)c3)c2C(F)(F)F)n1` [IB-1, ethyl 2-{3-(2-chloro-6-fluorophenyl)-5-[1-(3-fluorophenyl)-5-(trifluoromethyl)-1H-pyrazol-4-yl]isoxazol-4-yl}-1,3-thiazole-4-carboxylate], for which the IC50 was in the range of 0.1 to 1 µM.

With `COC(=O)c1csc(-c2c(-c3c(F)cccc3Cl)noc2-c2cnn(-c3cccc(F)c3)c2C(F)(F)F)n1` [IB-2, methyl 2-{3-(2-chloro-6-fluorophenyl)-5-[1-(3-fluorophenyl)-5-(trifluoromethyl)-1H-pyrazol-4-yl]isoxazol-4-yl}-1,3-thiazole-4-carboxylate], the IC50 lay within 0.1 to 1 µM.

Regarding `Cc1nnc(-c2c(-c3c(F)cccc3Cl)noc2-c2cnn(-c3cccc(Cl)c3)c2C(F)(F)F)s1` [IB-3, 3-(2-chloro-6-fluorophenyl)-5-(1-(3-chlorophenyl)-5-(trifluoromethyl)-1H-pyrazol-4-yl)-4-(5-methyl-1,3,4-thiadiazol-2-yl)isoxazole], the IC50 was < 0.01 µM.

As to `Cc1nnc(-c2c(-c3c(F)cccc3Cl)noc2-c2cnn(-c3cccc(Cl)c3)c2C(F)(F)F)o1` [IB-4, 2-(3-(2-chloro-6-fluorophenyl)-5-(1-(3-chlorophenyl)-5-(trifluoromethyl)-1H-pyrazol-4-yl)isoxazol-4-yl)-5-methyl-1,3,4-oxadiazole], the IC50 was < 0.01 µM.

The same assay, now with this note: human PBMC, 2 μg/ml PHA, 48 hours, BrdU; read-out: D: IC50 (Tcell proliferation).
Turning to `CNC(=O)c1c(-c2c(F)cccc2Cl)noc1-c1cnn(-c2ccccn2)c1C(F)(F)F` [Example B-93, 3-(2-chloro-6-fluorophenyl)-N-methyl-5-(1-(pyridin-2-yl)-5-(trifluoromethyl)-1H-pyrazol-4-yl)isoxazole-4-carboxamide], the IC50 was in the range of 1 to 10 µM.

Take `CCOC(=O)c1c(-c2c(F)cccc2Cl)noc1-c1cnn(-c2ccc([N+](=O)[O-])cc2)c1C(F)(F)F` [Example B-94, ethyl 3-(2-chloro-6-fluorophenyl)-5-(1-(4-nitrophenyl)-5-(trifluoromethyl)-1H-pyrazol-4-yl)isoxazole-4-carboxylate]: the IC50 lay within 1 to 10 µM.

Take `CCOC(=O)c1c(-c2c(F)cccc2Cl)noc1-c1cnn(-c2ccccc2[N+](=O)[O-])c1C(F)(F)F` [Example B-95, 3-(2-chloro-6-fluorophenyl)-5-(1-(2-nitrophenyl)-5-(trifluoromethyl)-1H-pyrazol-4-yl)isoxazole-4-carboxylate]: the IC50 lay in the range of 0.1 to 1 µM.

For `CCOC(=O)c1c(-c2c(F)cccc2Cl)noc1-c1cnn(CC2CCCO2)c1C(F)(F)F` (centres unmarked) [Example B-96, ethyl 3-(2-chloro-6-fluorophenyl)-5-(1-((tetrahydrofuran-2-yl)methyl)-5-(trifluoromethyl)-1H-pyrazol-4-yl)isoxazole-4-carboxylate], the IC50 lay in the range of 0.01 to 0.1 µM.

On to `CCOC(=O)c1c(-c2c(F)cccc2Cl)noc1-c1cnn(CCN2CCOCC2)c1C(F)(F)F` [Example B-97, ethyl 3-(2-chloro-6-fluorophenyl)-5-(1-(2-morpholinoethyl)-5-(trifluoromethyl)-1H-pyrazol-4-yl)isoxazole-4-carboxylate], for which the IC50 lay within 1 to 10 µM.

Take `CCOC(=O)c1c(-c2c(F)cccc2Cl)noc1-c1cnn(-c2ccc(NC(C)=O)cc2)c1C(F)(F)F` [Example B-99, ethyl 5-(1-(4-acetamidophenyl)-5-(trifluoromethyl-1H-pyrazol-4-yl)-3-(2-chloro-6-fluorophenyl)isoxazole-4-carboxylate]: the IC50 lay within 1 to 10 µM.

For `CCOC(=O)c1c(-c2c(F)cccc2Cl)noc1-c1cnn(-c2cccc(C(N)=O)c2)c1C(F)(F)F` [Example B-100, ethyl 5-(1-(3-carbamoylphenyl)-5-(trifluoromethyl)-1H-pyrazol-4-yl)-3-(2-chloro-6-fluorophenyl)isoxazole-4-carboxylate], the IC50 lay within 1 to 10 µM.

As for `NC(=S)c1c(-c2c(F)cccc2Cl)noc1-c1cnn(-c2ccccc2Cl)c1C(F)(F)F` [Example B-101, 3-(2-chloro-6-fluorophenyl)-5-(1-(2-chlorophenyl)-5-(trifluoromethyl)-1H-pyrazol-4-yl)isoxazole-4-carbothioamide], the IC50 fell in the range of 1 to 10 µM.

As for `NC(=S)c1c(-c2c(F)cccc2Cl)noc1-c1cnn(-c2ccccc2F)c1C(F)(F)F` [Example B-102, 3-(2-chloro-6-fluorophenyl)-5-(1-(2-fluorophenyl)-5-(trifluoromethyl)-1H-pyrazol-4-yl)isoxazole-4-carbothioamide], the IC50 was in the range of 0.1 to 1 µM.
